Data as given in US20230263792A1, “USE OF 2,3,5-SUBSTITUTED THIOPHENE COMPOUND FOR PREVENTING, ALLEVIATION, OR TREATING MASTOCYTOSIS” (PHAROS IBIO CO., LTD, priority 2020, published 2023).

Experiments:
Type in all cases: cell-based
[1] = test system: c-kit phosphorylation and downstream signaling (p-STAT5, p-AKT, p-ERK) in HMC-1.2 cell line; assay: Western blot of c-kit phosphorylation and downstream signaling in HMC-1.2; conditions: FIG. 6
Procedure: (§1) Specifically, the c-kit D816V mutant Ba/F3 cell line was dispensed at a concentration of 1×10^6 cells/ml, treated with each of the control compounds and PHI-101 at concentrations of 0.1, 1 and 10 μM, and then cultured for 2 hours. Next, lysates of the cells were obtained using lysis buffer (50 mM Tris-HCl pH 7.5, 1% NP40, 1 mM EDTA, 150 mM NaCl, 5 mM, Na3VO4 and 2.5 mM NaF, and a protease inhibitor cocktail). Equal amounts of the cell lysates were electrophoresed using 8% SDS-PAGE gel at 100 V for 1 hour and 30 minutes, and the separated protein was electrically transferred to nitrocellulose membranes. The membranes were blocked with 5% skim milk at room temperature for 30 minutes, and allowed to react with primary antibodies (diluted 1:5,000), including p-c-kit tyrosine 719 (Y719), p-STAT3 tyrosine 705 (Y705) and p-ERK1/2 threonine 202/tyrosine 204 (T202/Y204) at 4° C. for 16 to 20 hours. […] Next, the membranes were washed three times with TBST for 5 minutes each time and treated with a chemiluminescent substrate reagent, and the expression level of the protein was measured by detecting luminescence with an X-ray film in the dark.
The inhibitory activities of control compounds and PHI-101 against c-kit phosphorylation and downstream signaling (p-STAT5, p-AKT, p-ERK) in a mastocytosis cell line were measured, and as the control compounds, imatinib and sunitinib were used. […]

[2] = test system: c-kit phosphorylation and downstream signaling (p-STAT3, p-ERK1/2) in the c-kit D816V mutant Ba/F3 cell line; assay: Western blot of c-kit phosphorylation and downstream signaling in c-kit D816V Ba/F3; conditions: 0.1, 1 and 10 μM, 2 hours, FIG. 2
Procedure: The inhibitory activities of control compounds and PHI-101 against c-kit phosphorylation and downstream signaling (p-STAT3, p-ERK1/2) in the c-kit D816V mutant Ba/F3 cell line were measured, and as the control compounds, sunitinib and dasatinib were used.
as §1

[3] = test system: HMC-1.2 cell line (imatinib-resistant cell line, having c-kit G560V/D816V mutation); assay: Growth inhibition of mastocytosis cell line HMC-1.2; conditions: HMC-1.2, 72 hours
Procedure: [Worded in the source for another cell line; this cell line is reported under the same test.] Specifically, 100 μl of a Ba/F3 cell line with a c-kit D816V mutation (FIG. 1) was added to each well of a 96-well plate at a concentration of 10,000 cells/100 μl. […] As the control compounds, imatinib and sunitinib which are c-kit inhibitors were used.

[4] = test system: cleaved PARP and cleaved caspase-3 in HMC-1.2 cell line; assay: Western blot of cleaved PARP and cleaved caspase-3, HMC-1.2; conditions: HMC-1.2, 0.1 and 1 μM, controls 1 μM, FIG. 8
Procedure: as §1, with “membranes.” for “membranes. The membranes were blocked with 5% skim milk at room temperature for 30 minutes, and allowed to react with primary antibodies (diluted 1:5,000), including p-c-kit tyrosine 719 (Y719), p-STAT3 tyrosine 705 (Y705) and p-ERK1/2 threonine 202/tyrosine 204 (T202/Y204) at 4° C. for 16 to 20 hours.”
A mastocytosis cell line was treated with PHI-101, and the levels of cleaved PARP and cleaved caspase-3, which are apoptosis markers, were analyzed. […]
Specifically, the apoptotic effect of PHI-101 against the HMC-1.2 cell line was analyzed in the same manner as in Example 1-2, except that the HMC-1.2 cell line was treated with each of the control compounds at a concentration of 1 μM and PHI-101 at concentrations of 0.1 and 1 μM, and that cleaved PARP and cleaved caspase-3, each diluted at 1:5,000, were used as primary antibodies.

[5] = test system: HMC-1.2 cell line; assay: Annexin V-PI FACS apoptosis analysis, HMC-1.2; conditions: HMC-1.2, 0.1 and 1 μM, FIG. 7
Procedure: (§2) Specifically, the c-kit D816V mutant Ba/F3 cell line was adjusted to a concentration of 1×10^6 cells/ml and treated with each of PHI-101 at concentrations of 0.1, 1 and 10 μM and the control compound sunitinib at concentrations of 1 and 10 μM for 24 hours. Thereafter, the medium was removed and the cells were washed once with 1 ml PBS. The PBS was removed by centrifugation at 1,000 rpm for 5 minutes. The cells were dissolved in 100 μl of PBS containing Ca^2+ and Mg^2+ and allowed to react with 5 μl of Annexin V for 20 minutes. After completion of the reaction, 400 μl of PBS containing Ca^2+ and Mg^2+ was added, and 5 μl of propidium iodide (PI) was added, and then the degree of apoptotic cell death was analyzed by FACS (fluorescence activated cell sorter) assay using a flow cytometer (FACS-C6, BD).
Specifically, the apoptotic effect of PHI-101 against the HMC-1.2 cell line was analyzed in the same manner as in Example 1-3, except that the HMC-1.2 cell line was treated with each of the control compounds at a concentration of 1 μM and PHI-101 at concentrations of 0.1 and 1 μM.

[6] = test system: c-kit D816V mutant Ba/F3 cell line; assay: Annexin V-PI FACS apoptosis analysis, c-kit D816V Ba/F3; conditions: 0.1, 1 and 10 μM, 24 hours, FIG. 3
Procedure: as §2

In the case of NC(=O)Nc1cc(C#Cc2cccc(F)c2)sc1C(=O)N[C@H]1CCCNC1 [PHI-101], the downstream signaling inhibition ([1]; 0.1 μM) is reported as “strongly inhibited downstream signaling”, the “c-kit phosphorylation and downstream signaling” value ([1]; 0.01, 0.1 and 1 μM) is reported as “decreased c-kit phosphorylation and downstream signaling in a concentration-dependent manner” and the “inhibitory activity against p-c-kit (Y719) phosphorylation” value [2] is reported as “higher inhibitory activity against p-c-kit (Y719) phosphorylation than the control compounds”. The GI50 [3] was 33 nM, the “levels of cleaved PARP and cleaved caspase-3” value [4] was “higher than those in the HMC-1.2 cell lines treated with the control compounds” and the “apoptosis induction (Annexin V-PI FACS)” value [5] was “strongly induced apoptosis even at a concentration of 1 μM”. The “apoptosis induction (Annexin V-PI FACS)” value [6] was “strongly induced apoptosis even at a concentration of 0.1 μM”.
